According to ChEMBL document CHEMBL1201862, “PubChem BioAssay data set” (2004):
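Values below derive from 48-hour exposures of cells grown in 96-well plates, with endpoints linearly interpolated between the two concentrations bracketing the appropriate inhibition level. GI50 marks 50% less growth.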 Active and inactive are the calls of the source. Rule as the data show it: active = GI50 up to about 1.1 µM and inactive = higher.

How the values were obtained:
Test in all cases: inhibition of tumour cell growth, NCI panel, 48 h
A549 = tested on: A549
RXF 393 = tested on: RXF 393
T47D = tested on: T47D
LOX IMVI = tested on: LOX IMVI
M14 = tested on: M14
A498 = tested on: A498
PC-3 = tested on: PC-3
CAKI-1 = tested on: CAKI-1
DU-145 = tested on: DU-145
HL-60 = tested on: HL-60
SR = tested on: SR
HOP-92 = tested on: HOP-92
RPMI-8226 = tested on: RPMI-8226
K562 = tested on: K562
NCI-H460 = tested on: NCI-H460
ACHN = tested on: ACHN
COLO 205 = tested on: COLO 205
IGROV-1 = tested on: IGROV-1
MCF7 = tested on: MCF7
EKVX = tested on: EKVX
SNB-75 = tested on: SNB-75
NCI-H23 = tested on: NCI-H23
NCI-H226 = tested on: NCI-H226
SK-MEL-28 = tested on: SK-MEL-28
SNB-19 = tested on: SNB-19
OVCAR-3 = tested on: OVCAR-3
HCT-116 = tested on: HCT-116
UACC-257 = tested on: UACC-257
BT-549 = tested on: BT-549
NCI-H522 = tested on: NCI-H522
MOLT-4 = tested on: MOLT-4
SK-OV-3 = tested on: SK-OV-3
Hs-578T = tested on: Hs-578T
SW-620 = tested on: SW-620
HCT-15 = tested on: HCT-15
MDA-MB-231 = tested on: MDA-MB-231
SK-MEL-2 = tested on: SK-MEL-2
OVCAR-4 = tested on: OVCAR-4
MDA-N = tested on: MDA-N
KM12 = tested on: KM12
OVCAR-8 = tested on: OVCAR-8
CCRF-CEM = tested on: CCRF-CEM
HCC 2998 = tested on: HCC 2998
OVCAR-5 = tested on: OVCAR-5
SN12C = tested on: SN12C
HOP-62 = tested on: HOP-62
NCI/ADR-RES = tested on: NCI/ADR-RES
UACC-62 = tested on: UACC-62
786-0 = tested on: 786-0
HT-29 = tested on: HT-29
U-251 = tested on: U-251
SK-MEL-5 = tested on: SK-MEL-5
Malme-3M = tested on: Malme-3M
MDA-MB-435 = tested on: MDA-MB-435
SF-268 = tested on: SF-268
SF-539 = tested on: SF-539
TK-10 = tested on: TK-10
UO-31 = tested on: UO-31
SF-295 = tested on: SF-295

COC(=O)[C@@H](COC(=O)/C=C/c1ccc(OC(C)=O)c(OC(C)=O)c1)NC(=O)/C=C/c1ccc(OC(C)=O)c(OC(C)=O)c1
GI50 (A549): 42.8 µM (inactive) | GI50 (RXF 393): 35.1 µM (inactive) | GI50 (T47D): 11.1 µM (inactive) | GI50 (LOX IMVI): 11.3 µM (inactive) | GI50 (M14): 14.6 µM (inactive) | GI50 (A498): 80.9 µM (inactive) | GI50 (PC-3): 23.1 µM (inactive) | GI50 (CAKI-1): 15.3 µM (inactive) | GI50 (DU-145): 22.8 µM (inactive) | GI50 (HL-60): 18.7 µM (inactive) | GI50 (SR): 8.49 µM (inactive) | GI50 (HOP-92): 32.7 µM (inactive) | GI50 (RPMI-8226): 38.2 µM (inactive) | GI50 (K562): > 100 µM (inactive) | GI50 (NCI-H460): 18.5 µM (inactive) | GI50 (ACHN): 32.2 µM (inactive) | GI50 (COLO 205): 15.7 µM (inactive) | GI50 (IGROV-1): 32.4 µM (inactive) | GI50 (MCF7): 33.9 µM (inactive) | GI50 (EKVX): 16.3 µM (inactive) | GI50 (SNB-75): 20.9 µM (inactive) | GI50 (NCI-H23): 28.1 µM (inactive) | GI50 (NCI-H226): 35.6 µM (inactive) | GI50 (SK-MEL-28): 70.8 µM (inactive) | GI50 (SNB-19): 44.5 µM (inactive) | GI50 (OVCAR-3): 20.5 µM (inactive) | GI50 (HCT-116): 16 µM (inactive) | GI50 (UACC-257): 51.8 µM (inactive) | GI50 (BT-549): 60.8 µM (inactive) | GI50 (NCI-H522): 13.2 µM (inactive) | GI50 (MOLT-4): 38.5 µM (inactive) | GI50 (SK-OV-3): 55.5 µM (inactive) | GI50 (Hs-578T): 25.2 µM (inactive) | GI50 (SW-620): 33.3 µM (inactive) | GI50 (HCT-15): 19.7 µM | GI50 (MDA-MB-231): 22.6 µM (inactive) | GI50 (SK-MEL-2): 21.7 µM (inactive) | GI50 (OVCAR-4): 16.4 µM (inactive) | GI50 (MDA-N): 18.3 µM (inactive) | GI50 (KM12): 25.1 µM (inactive) | GI50 (OVCAR-8): 22.5 µM (inactive) | GI50 (CCRF-CEM): 9.98 µM (inactive) | GI50 (HCC 2998): 21.8 µM (inactive) | GI50 (OVCAR-5): 45.8 µM (inactive) | GI50 (SN12C): 18 µM (inactive) | GI50 (HOP-62): 25.6 µM (inactive) | GI50 (NCI/ADR-RES): 51.5 µM (inactive) | GI50 (UACC-62): 19.6 µM (inactive) | GI50 (786-0): 14.8 µM (inactive) | GI50 (HT-29): 22.4 µM (inactive) | GI50 (U-251): 33.7 µM (inactive) | GI50 (SK-MEL-5): 13.4 µM (inactive) | GI50 (Malme-3M): 6.52 µM (inactive) | GI50 (MDA-MB-435): 29.5 µM (inactive) | GI50 (SF-268): 29.9 µM (inactive) | GI50 (SF-539): 19 µM (inactive)

C=C1C(O)C2OC(=O)C(=C)C2C(OC(=O)/C(C)=C/C)CC2(C)OC2C2OC12 (stereo not given)
GI50 (A549): 19.8 µM (inactive) | GI50 (RXF 393): 4.85 µM (inactive) | GI50 (T47D): 14.3 µM (inactive) | GI50 (LOX IMVI): 6.68 µM (inactive) | GI50 (M14): 18 µM (inactive) | GI50 (A498): 15.3 µM (inactive) | GI50 (TK-10): 14.4 µM (inactive) | GI50 (PC-3): 15.3 µM (inactive) | GI50 (UO-31): 5.98 µM (inactive) | GI50 (CAKI-1): 10.2 µM (inactive) | GI50 (DU-145): 7.14 µM (inactive) | GI50 (HL-60): 2.52 µM (inactive) | GI50 (SR): 1.93 µM (inactive) | GI50 (HOP-92): 19.4 µM (inactive) | GI50 (RPMI-8226): 2.58 µM (inactive) | GI50 (NCI-H460): 3.78 µM (inactive) | GI50 (ACHN): 3.69 µM (inactive) | GI50 (COLO 205): 7.1 µM (inactive) | GI50 (IGROV-1): 6.15 µM (inactive) | GI50 (MCF7): 4.44 µM (inactive) | GI50 (EKVX): 10.4 µM (inactive) | GI50 (SF-295): 14.2 µM (inactive) | GI50 (SNB-75): 10.4 µM (inactive) | GI50 (NCI-H23): 8.28 µM (inactive) | GI50 (NCI-H226): > 100 µM (inactive) | GI50 (SK-MEL-28): 20.4 µM (inactive) | GI50 (SNB-19): 19.5 µM (inactive) | GI50 (OVCAR-3): 6.28 µM (inactive) | GI50 (HCT-116): 5.22 µM (inactive) | GI50 (UACC-257): 15.7 µM (inactive) | GI50 (BT-549): 7.71 µM (inactive) | GI50 (NCI-H522): 3.15 µM (inactive) | GI50 (MOLT-4): 0.634 µM (active) | GI50 (SK-OV-3): 43.6 µM (inactive) | GI50 (Hs-578T): 20.7 µM (inactive) | GI50 (SW-620): 8.04 µM (inactive) | GI50 (HCT-15): 2.55 µM | GI50 (MDA-MB-231): 8.36 µM (inactive) | GI50 (SK-MEL-2): 5.47 µM (inactive) | GI50 (OVCAR-4): 2.71 µM (inactive) | GI50 (MDA-N): 2.2 µM (inactive) | GI50 (KM12): 2.86 µM (inactive) | GI50 (OVCAR-8): 6.11 µM (inactive) | GI50 (CCRF-CEM): 12.6 µM (inactive) | GI50 (HCC 2998): 4.89 µM (inactive) | GI50 (OVCAR-5): 5.89 µM (inactive) | GI50 (SN12C): 2.82 µM (inactive) | GI50 (HOP-62): 14.5 µM (inactive) | GI50 (NCI/ADR-RES): 7.93 µM (inactive) | GI50 (UACC-62): 15.3 µM (inactive) | GI50 (786-0): 6.31 µM (inactive) | GI50 (HT-29): 5.47 µM (inactive) | GI50 (U-251): 17.2 µM (inactive) | GI50 (SK-MEL-5): 6.22 µM (inactive) | GI50 (Malme-3M): 10.3 µM (inactive) | GI50 (MDA-MB-435): 5.74 µM (inactive) | GI50 (SF-268): 4.67 µM (inactive) | GI50 (SF-539): 6.85 µM (inactive)

CCOC(=O)c1cc2c([nH]1)c(OC(C)=O)cc1c2ccn1Cc1ccccc1
GI50 (A549): > 100 µM (inactive) | GI50 (RXF 393): > 100 µM (inactive) | GI50 (T47D): > 100 µM (inactive) | GI50 (LOX IMVI): > 100 µM (inactive) | GI50 (M14): > 100 µM (inactive) | GI50 (A498): > 100 µM (inactive) | GI50 (PC-3): > 100 µM (inactive) | GI50 (UO-31): > 100 µM (inactive) | GI50 (CAKI-1): > 100 µM (inactive) | GI50 (DU-145): > 100 µM (inactive) | GI50 (HL-60): > 100 µM (inactive) | GI50 (SR): > 100 µM (inactive) | GI50 (HOP-92): > 100 µM (inactive) | GI50 (RPMI-8226): > 100 µM (inactive) | GI50 (K562): > 100 µM (inactive) | GI50 (NCI-H460): > 100 µM (inactive) | GI50 (COLO 205): > 100 µM (inactive) | GI50 (IGROV-1): > 100 µM (inactive) | GI50 (MCF7): > 100 µM (inactive) | GI50 (EKVX): 99.5 µM (inactive) | GI50 (SF-295): > 100 µM (inactive) | GI50 (SNB-75): > 100 µM (inactive) | GI50 (NCI-H23): > 100 µM (inactive) | GI50 (NCI-H226): > 100 µM (inactive) | GI50 (SK-MEL-28): > 100 µM (inactive) | GI50 (SNB-19): > 100 µM (inactive) | GI50 (OVCAR-3): > 100 µM (inactive) | GI50 (HCT-116): > 100 µM (inactive) | GI50 (UACC-257): > 100 µM (inactive) | GI50 (BT-549): > 100 µM (inactive) | GI50 (MOLT-4): > 100 µM (inactive) | GI50 (SK-OV-3): > 100 µM (inactive) | GI50 (Hs-578T): > 100 µM (inactive) | GI50 (SW-620): > 100 µM (inactive) | GI50 (HCT-15): > 100 µM | GI50 (MDA-MB-231): > 100 µM (inactive) | GI50 (SK-MEL-2): > 100 µM (inactive) | GI50 (OVCAR-4): > 100 µM (inactive) | GI50 (MDA-N): > 100 µM (inactive) | GI50 (KM12): > 100 µM (inactive) | GI50 (OVCAR-8): > 100 µM (inactive) | GI50 (CCRF-CEM): > 100 µM (inactive) | GI50 (HCC 2998): > 100 µM (inactive) | GI50 (OVCAR-5): > 100 µM (inactive) | GI50 (SN12C): > 100 µM (inactive) | GI50 (HOP-62): > 100 µM (inactive) | GI50 (NCI/ADR-RES): > 100 µM (inactive) | GI50 (UACC-62): > 100 µM (inactive) | GI50 (786-0): > 100 µM (inactive) | GI50 (HT-29): > 100 µM (inactive) | GI50 (U-251): > 100 µM (inactive) | GI50 (SK-MEL-5): > 100 µM (inactive) | GI50 (Malme-3M): > 100 µM (inactive) | GI50 (MDA-MB-435): > 100 µM (inactive) | GI50 (SF-268): > 100 µM (inactive) | GI50 (SF-539): > 100 µM (inactive)
